Laboratory results as given in ChEMBL document CHEMBL4476864, “Azapeptides as cd36 binding compounds” (2013).
The source made the active and inactive calls. The rule behind the calls is not given here. Starred links: 1 amine or outer side, 2 acyl side, 3 side chain; linkers in the order of their positions; H or OH if unused. Non-standard residues stand in square brackets, D forms with d. Residues, ends and D or L forms follow the SMILES beside them. azaTyr = O=C(N(Cc1ccc(O)cc1)N[*:1])[*:2]

How the values were obtained:
Aorta [1] = assay: Inhibition of vascular sprouting in CD36+/+ C57BL/6 mouse aortic rings exposed on day 4 to 6; format: functional, tissue-based
Aorta [2] = assay: Inhibition of vascular sprouting in CD36-/- C57BL/6 mouse aortic rings exposed on day 4 to 6; format: functional, tissue-based
Mus musculus [3] = assay: Inhibition of choroidal neovascularization in CD36-/- C57BL/6 mouse model of FITC-conjugated dextran infusion following laser-induced posterior retinal injury administered in to vitreous tissue; format: functional, organism-based
Mus musculus [4] = assay: Inhibition of choroidal neovascularization in CD36+/+ C57BL/6 mouse model of FITC-conjugated dextran infusion following laser-induced posterior retinal injury administered in to vitreous tissue; format: functional

In the case of `C[C@H](NC(=O)[C@@H](Cc1c[nH]c2ccccc12)NC(=O)[C@@H](N)Cc1cnc[nH]1)C(=O)NN(Cc1ccc(O)cc1)C(=O)N[C@H](Cc1ccccc1)C(=O)N[C@@H](CCCCN)C(N)=O` (H-H[dW]A[azaTyr][dF]K-NH2), the inhibition (Aorta [1]) is reported as “Dose-dependent effect”, the inhibition (Aorta [2]) is reported as “inactive” and the inhibition (Mus musculus [3]) is reported as “inactive”. For the same compound, the “inhibition (INH)” value (Mus musculus [4]) was >50%.
